Data taken from ChEMBL document CHEMBL5316326, “Discovery of a Novel Covalent EZH2 Inhibitor Based on Tazemetostat Scaffold for the Treatment of Ovarian Cancer” (J Med Chem, 2023).
Calls of active or inactive are those of the source. The rule behind the calls is not given here.

Assays:
[1] = Toxicity in BALB/C nude mouse xenografted with human PA-1 cells assessed as pathological changes in kidney at 75 to 150 mg/kg,po BID for 21 days by H&E staining based microscopic analysis; type: organism-based; conditions: in vivo, 504 h, dose 75-150 mg/kg, time 21 day
PA-1 [2] = assay: Induction of apoptosis in human PA-1 cells assessed as necrotic cells at 40 uM incubated for 48 hrs by AnnexinV-FITC/PI staining based flow cytometry analysis (Rvb= 1.48%); type: functional
[3] = target: T1, Histone-lysine N-methyltransferase EZH2 (Homo sapiens, UniProt Q15910); assay: Binding affinity to wild type recombinant EZH2 (494 to 737 residues) (unknown origin) expressed in Escherichia coli assessed as adduct formation incubated for 2 hrs by LC-MS analysis
T1 sequence (Q15910 whole entry, looked up, the tested form may be a part): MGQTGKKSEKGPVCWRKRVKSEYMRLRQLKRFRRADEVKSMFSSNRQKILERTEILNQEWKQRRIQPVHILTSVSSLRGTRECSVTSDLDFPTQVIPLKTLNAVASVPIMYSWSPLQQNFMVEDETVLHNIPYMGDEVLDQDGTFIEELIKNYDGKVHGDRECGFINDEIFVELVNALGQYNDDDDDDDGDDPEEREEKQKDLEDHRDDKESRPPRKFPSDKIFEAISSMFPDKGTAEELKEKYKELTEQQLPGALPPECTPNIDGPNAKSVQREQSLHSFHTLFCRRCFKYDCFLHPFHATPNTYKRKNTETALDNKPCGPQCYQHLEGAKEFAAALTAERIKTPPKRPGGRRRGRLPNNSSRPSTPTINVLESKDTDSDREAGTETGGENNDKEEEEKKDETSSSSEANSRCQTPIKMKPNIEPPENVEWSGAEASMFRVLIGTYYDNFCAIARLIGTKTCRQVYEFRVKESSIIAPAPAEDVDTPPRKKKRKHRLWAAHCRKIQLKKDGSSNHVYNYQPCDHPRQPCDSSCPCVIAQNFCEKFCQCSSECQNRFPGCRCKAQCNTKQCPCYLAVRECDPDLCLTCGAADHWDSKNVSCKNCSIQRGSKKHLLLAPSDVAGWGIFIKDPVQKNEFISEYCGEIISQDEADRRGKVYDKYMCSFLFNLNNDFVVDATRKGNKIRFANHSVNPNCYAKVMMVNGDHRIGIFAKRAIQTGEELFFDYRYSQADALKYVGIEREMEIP

[4] = Toxicity in BALB/C nude mouse xenografted with human PA-1 cells assessed as pathological changes in liver at 75 to 150 mg/kg,po BID for 21 days by H&E staining based microscopic analysis; type: organism-based; conditions: in vivo, 504 h, dose 75-150 mg/kg, time 21 day
[5] = Toxicity in BALB/C nude mouse xenografted with human PA-1 cells assessed as pathological changes in hematological parameters at 75 to 150 mg/kg,po BID for 21 days; type: organism-based; conditions: in vivo, 504 h, dose 75-150 mg/kg, time 21 day
SK-OV-3 = assay: Antiproliferative activity against human SK-OV-3 cells assessed as inhibition of cell proliferation incubated for 72 hrs by MTT assay; type: functional, cell-based; conditions: SK-OV-3, 72 h
[6] = target: T1, Histone-lysine N-methyltransferase EZH2; assay: Covalent inhibition of EZH2 (unknown origin) assessed as slow change in dissociation rate preincubated for 60 mins followed by substrate addition and measured upto 90 mins using Mix-GL11 and 3H-SAM as substrate by spin column method; conditions: time > 150.0 min
PA-1 [7] = assay: Antiproliferative activity against human PA-1 cells assessed as inhibition of cell proliferation incubated for 3 to 5 days by MTT assay; type: functional, cell-based; conditions: time 3-5 day, TDE = time-dependent effect
PA-1 [8] = assay: Antitumor activity against human PA-1 cells xenografted in BALB/C nude mouse assessed as tumor growth inhibition at 75 mg/kg,po BID for 21 days; type: functional; conditions: PA-1, 504 h, time 21 day, read-out: TGI
[9] = Tmax in Sprague-Dawley rat at 100 mg/kg, po and measured upto 24 hrs by LC-MS/MS analysis; type: ADME, organism-based; conditions: in vivo
[10] = target: N-lysine methyltransferase KMT5A (Homo sapiens) (UniProt Q9NQR1); assay: Inhibition of SETD8 (unknown origin) at 1 to 10 uM by AlphaLlSA assay; conditions: dose 1-10 µM
Chain of N-lysine methyltransferase KMT5A (Homo sapiens) (Q9NQR1 whole entry): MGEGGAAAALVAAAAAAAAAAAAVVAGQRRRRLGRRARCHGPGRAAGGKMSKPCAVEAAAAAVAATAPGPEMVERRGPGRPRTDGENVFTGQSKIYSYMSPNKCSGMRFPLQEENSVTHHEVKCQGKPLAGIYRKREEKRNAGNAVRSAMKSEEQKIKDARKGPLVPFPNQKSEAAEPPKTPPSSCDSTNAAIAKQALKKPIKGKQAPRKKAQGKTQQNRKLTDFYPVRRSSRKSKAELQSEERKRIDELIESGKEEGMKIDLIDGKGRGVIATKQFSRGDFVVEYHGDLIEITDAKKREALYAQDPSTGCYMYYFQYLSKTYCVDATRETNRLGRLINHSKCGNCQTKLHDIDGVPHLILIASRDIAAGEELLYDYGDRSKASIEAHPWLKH

BT-549 = assay: Antiproliferative activity against human BT-549 cells assessed as inhibition of cell proliferation incubated for 72 hrs by MTT assay; type: functional, cell-based; conditions: BT-549, 72 h
PA-1 [11] = assay: Induction of apoptosis in human PA-1 cells assessed as viable cells at 5 uM incubated for 48 hrs by AnnexinV-FITC/PI staining based flow cytometry analysis (Rvb= 88.53%); type: functional; conditions: read-out: Activity
[12] = Antiproliferative activity against human COV362 cells assessed as inhibition of cell proliferation incubated for 72 hrs by MTT assay; type: functional, cell-based; conditions: COV362, 72 h
[13] = test system: Histone-lysine N-methyltransferase EZH2 (Homo sapiens), Q15910 [Y641N]; conditions: dose 10.0 nM
Chain of Histone-lysine N-methyltransferase EZH2 (Homo sapiens), Q15910 [Y641N] (Q15910 whole entry Y641N): as the sequence (Q15910 whole entry, looked up, the tested form may be a part) above, with Y641N counted along it
Description: Inhibition of EZH2 Y614N mutant (unknown origin) at 10 nM by AlphaLlSA assay

PA-1 [14] = assay: Induction of apoptosis in human PA-1 cells assessed as necrotic cells at 10 uM incubated for 48 hrs by AnnexinV-FITC/PI staining based flow cytometry analysis (Rvb= 1.48%); type: functional
A2780 [15] = assay: Antiproliferative activity against human A2780 cells assessed as inhibition of cell proliferation incubated for 3 to 5 days by MTT assay; type: functional, cell-based; conditions: time 3-5 day, TDE = time-dependent effect
[16] = test system: Histone-lysine N-methyltransferase EZH2 (Homo sapiens), Q15910 [A677G]; assay: Inhibition of EZH2 […] mutant (unknown origin) at 1 nM by AlphaLlSA assay
Chain of Histone-lysine N-methyltransferase EZH2 (Homo sapiens), Q15910 [A677G] (Q15910 whole entry A677G): as the sequence (Q15910 whole entry, looked up, the tested form may be a part) above, with A677G counted along it

OAW-42 = assay: Antiproliferative activity against human OAW-42 cells assessed as inhibition of cell proliferation incubated for 72 hrs by MTT assay; type: functional, cell-based; conditions: OAW-42, 72 h
[17] = test system: Histone-lysine N-methyltransferase EZH2 (Homo sapiens), Q15910 [Y641F]; assay: Inhibition of EZH2 […] mutant (unknown origin) at 1 nM by AlphaLlSA assay
Chain of Histone-lysine N-methyltransferase EZH2 (Homo sapiens), Q15910 [Y641F] (Q15910 whole entry Y641F, looked up): as the sequence (Q15910 whole entry, looked up, the tested form may be a part) above, with Y641F counted along it

[18] = Toxicity in BALB/C nude mouse xenografted with human PA-1 cells assessed as pathological changes in heart at 75 to 150 mg/kg,po BID for 21 days by H&E staining based microscopic analysis; type: organism-based; conditions: in vivo, 504 h, dose 75-150 mg/kg, time 21 day
PA-1 [19] = assay: Induction of apoptosis in human PA-1 cells assessed as late apoptotic cells at 10 uM incubated for 48 hrs by AnnexinV-FITC/PI staining based flow cytometry analysis (Rvb= 3.09%); type: functional
[20] = Half life in Sprague-Dawley rat at 5 mg/kg, iv and measured upto 24 hrs by LC-MS/MS analysis; type: ADME, organism-based; conditions: in vivo
[21] = target: T1, Histone-lysine N-methyltransferase EZH2; assay: Inhibition of EZH2 methyltransferase activity in human A2780 cells assessed as reduction in H3K27me3 level at 10 uM and measured upto 4 days by Western blot analysis; type: cell-based; conditions: time <= 4.0 day, TDE = time-dependent effect
[22] = AUCt in Sprague-Dawley rat at 100 mg/kg, po and measured upto 24 hrs by LC-MS/MS analysis; type: ADME, organism-based; design: time < 24 hrs, dose 100 mg/kg, route po; conditions: in vivo
HEY = assay: Antiproliferative activity against human HEY cells assessed as inhibition of cell proliferation incubated for 72 hrs by MTT assay; type: functional, cell-based
[23] = Toxicity in BALB/C nude mouse xenografted with human PA-1 cells assessed as pathological changes in spleen at 75 to 150 mg/kg,po BID for 21 days by H&E staining based microscopic analysis; type: organism-based; conditions: in vivo, 504 h, dose 75-150 mg/kg, time 21 day
A549 = assay: Antiproliferative activity against human A549 cells assessed as inhibition of cell proliferation incubated for 72 hrs by MTT assay; type: functional, cell-based; conditions: A549, 72 h
A2780 [24] = assay: Inhibition of colony formation in human A2780 cells assessed as reduction in size of colonies at 0.25 to 10 uM incubated for 14 days with medium change every 3 days by crystal violet staining method; type: functional, cell-based; conditions: dose 0.25-10 µM, time 14.0 day
[25] = Tmax in Sprague-Dawley rat at 5 mg/kg, iv and measured upto 24 hrs by LC-MS/MS analysis; type: ADME, organism-based; conditions: in vivo
[26] = AUCt in Sprague-Dawley rat at 5 mg/kg, iv and measured upto 24 hrs by LC-MS/MS analysis; type: ADME, organism-based; design: time < 24 hrs, dose 5 mg/kg, route iv; conditions: in vivo
MCF7 = assay: Antiproliferative activity against human MCF7 cells assessed as inhibition of cell proliferation incubated for 72 hrs by MTT assay; type: functional, cell-based; conditions: MCF7, 72 h
4T1 = assay: Antiproliferative activity against mouse 4T1 cells assessed as inhibition of cell proliferation incubated for 72 hrs by MTT assay; type: functional, cell-based; conditions: 4T1, 72 h
[27] = target: T1, Histone-lysine N-methyltransferase EZH2; assay: Inhibition of EZH2 methyltransferase activity in human PA-1 cells assessed as reduction in H3K27me3 level at 10 uM and measured upto 4 days by Western blot analysis; type: cell-based; conditions: time <= 4.0 day, TDE = time-dependent effect
PA-1 [28] = assay: Induction of apoptosis in human PA-1 cells assessed as necrotic cells at 20 uM incubated for 48 hrs by AnnexinV-FITC/PI staining based flow cytometry analysis (Rvb= 1.48%); type: functional

- Activity [3]: Active
- IC50 (SK-OV-3): 56.4 µM
- inhibition [6]: Active
- Tmax [9]: 22.8 min
- inhibition [10]: inactive
- IC50 (BT-549): 18.9 µM
- inhibition [13]: Active
- inhibition [16]: Active
- inhibition [17]: Active
- t1/2 [20]: 36.6 min
- inhibition [21]: Tde
- AUC(0-t) at 24 h [22]: 12600 ng·h/mL
- IC50 (A549): 28.7 µM
- Tmax [25]: 4.8 min
- AUCt [26]: 7225.47 ng·h/mL
- IC50 (MCF7): 56.2 µM
- IC50 (4T1): 24.5 µM
- inhibition [27]: Tde
Compound: C=CC(=O)Nc1ccc(C)c(-c2cc(C(=O)NCc3c(C)cc(C)[nH]c3=O)c(C)c(N(CC)C3CCOCC3)c2)c1
- Activity [1]: Non-Toxic
- Activity (PA-1 [2]): 0.34%
- Activity [4]: Non-Toxic
- Activity [5]: Non-Toxic
- Activity (PA-1 [7]): Tde
- inhibition in vivo at 75 mg/kg (PA-1 [8]): 45.3%
- viability at 5 µM (PA-1 [11]): 83.2%
- IC50 [12]: > 100 µM
- Activity (PA-1 [14]): 0.94%
- Activity (A2780 [15]): Tde
- IC50 (OAW-42): > 100 µM
- Activity [18]: Non-Toxic
- Activity (PA-1 [19]): 6.16%
- IC50 (HEY): 35.5 µM
- Activity [23]: Non-Toxic
- inhibition (A2780 [24]): Dose-Dependent Effect
- Activity (PA-1 [28]): 3.36%
